# Experiments:
# [1] = test system: E2F1 target genes DHFR and TK1 in control line; test: qPCR of E2F1 target genes in control line; assay type: cell-based; conditions: 10 μM, 24 h
# Description: (§1) For spontaneous clones: 200 k cells were seeded in 6 well plates in RPMI 1640 supplemented with 10% FCS for 2 d prior to treatment with various compounds for 24 h. Alternatively, for experiments involving androgen-depletion, 200 k cells were seeded and grown in 6 well plates in phenol-free RPMI 1640 supplemented with 10% FCS for 2 d. […] Similar protocols were applied for genetically engineered lines except that cells were pretreated with Dox for at least 2 d prior to treatment with various compounds to allow sufficient transgene expression. Total RNA was extracted using the RNeasy plus mini kit (Qiagen, cat#74136) according to the manufacturer's instructions. 1-2 μg of total RNA was used for cDNA synthesis using a high capacity cDNA reverse transcription kit (Applied Biosystems, cat#4368813). cDNA from each sample was diluted 15-20 fold and real-time was performed in triplicates using gene-specific primers and FastStart Universal Probe Master Mix (Rox) (Roche Applied Science) on an ABI 7900HT series PCR machine. Expression levels were normalized to TBP expression. All analysis was performed using the SDS2.3 software. The following gene-specific primers (Invitrogen) were used: AR (Hs00171172_m1), KLK3 (Hs02576345_m1), NKX3-1 (Hs00171834_m1), TMPRSS2 (Hs01120965_m1), SLC45A3 (Hs00263832_m1), TBP (Hs00427620_m1), DHFR (Hs00758822_s1) and TK1 (Hs01062125_m1).
# [2] = test system: AR target genes KLK3, NKX3-1 and SLC45A3 in strongly resistant clones; test: qPCR of AR target genes in strongly resistant clones; assay type: cell-based; conditions: 24 h
# Description: as §1
# [3] = randomized clinical trial; cited from earlier work
# [4] = test system: AR pathway activity in strongly resistant clones; test: Microarray clustering and GSEA of AR pathway activity, strongly resistant clones; assay type: cell-based; conditions: 10 μM, 24 h
# Description: (§2) Total RNA was isolated from cells using the Qiagen RNeasy Kit. RNA integrity and purity were assessed with the RNA 6000 Nano LabChip system on a Bioanalyzer 2100 (Agilent Technologies). Generation of labeled cDNA and hybridization to Affymetrix GeneChip Human Genome U133 Plus 2.0 Array (Affymetrix Inc.) was performed using standard protocols as previously described (8). Probesets from the Affymetrix gene expression datasets were normalized using MASS with a trimmed-mean target of 150, and log 2-transformed. Probesets were then filtered for inclusion only if their maximum value over different samples was at least 5. […] This regression was used to generate nominal p-values and regression coeffecients (i.e. fold-changes).
# [5] = test system: LNCaP control (C1) tumors; test: In vivo tumorigenesis assay, control C1 xenografts; parameters: species or system castrated male nu/nu mice
# Description: 10 million LNCaP cells (C1, clone #1) mixed 1:1 with matrigel were injected subcutaneously into the flank of castrated 7-8 week male nu/nu mice. […]. Tumors were measured using calipers and tumor volumes were calculated using length×width/2. Data is expressed as mean±SEM. All animal experiments were performed in compliance with the guidelines of Novartis Biomedical Research Animal Care and Use Committee protocols and regulations.
# [6] = test system: AR localization in strongly resistant clone #1; test: Nuclear/cytoplasmic fractionation of AR, strongly resistant clone #1; assay type: cell-based; conditions: 10 μM, 24 h
# Description: (§7) The next day, cells were harvested with trypsin, centrifuged at 500×g for 5 min, washed with PBS, transferred to 1.5 ml microcentrifuge tubes and pelleted by centrifugation at 500×g for 2-3 min. […] Briefly, the pellet was resuspended in 500 μl of ice-cold Cer I buffer and incubated on ice for 10 min. Following incubation, 27.5 μl of ice-cold Cer II buffer was added, vortexed and incubated for 1 min on ice. The lysate/Cer I/II mixture was vortexed again, centrifuged at 14000×g for 5 min and the cytoplasmic extract (supernatant) was transferred to pre-chilled tubes. The insoluble pellet, which contains nuclei, was resuspended in ice-cold 250 μl NER buffer, vortexed and placed on ice. Sample was vortexed for 15 s every 10 min for a total of 40 min. Following incubation, samples were centrifuged at 14000×g for 10 min. Supernatant, which contains the nuclear extract, was transferred to pre-chilled tubes. These samples were processed for immunoblot analysis as described above.
# [7] = test system: AR pathway activity in control and weakly resistant lines; test: Microarray clustering and GSEA of AR pathway activity, control and weakly resistant lines; assay type: cell-based; conditions: 10 μM, 24 h
# Description: as §2
# CYP2C19 = conditions: in humans; cited from earlier work
# CYP3A4 = conditions: in humans; cited from earlier work
# CYP2C9 = conditions: in humans; cited from earlier work
# [8] = test system: AR localization in control (C1) LNCaP line; test: Nuclear/cytoplasmic fractionation of AR, control line C1; assay type: cell-based; conditions: 10 μM, 24 h
# Description: as §7
# LNCaP cells = test: Culture of LNCaP cells with MDV3100; assay type: cell-based; conditions: short-term culture (<1.5 months); FCS+MDV relative to FCS
# Description: 2 million LNCaP cells were seeded into four 150 cm^2 tissue culture dishes in phenol red-free RPMI 1640 media supplemented with 10% FCS. […] Cells were re-seeded into 150 cm^2 dishes supplemented with the appropriate treatments once each week. Media and compound was replaced for dish 4 once every week. Once resistant clones emerged, media was aspirated from dish 4. […] Cells from control dishes 1-3 were maintained until resistant clones were cryopreserved to maintain a constant culture time for control and experimental lines.
# [9] = test system: strongly resistant LNCaP clones #1, 15, 19, 24 (AR F877L/T878A); test: Short-term CellTiter-Glo growth assay, strongly resistant LNCaP clones; assay type: cell-based; conditions: for growth sensitivity compared with bicalutamide: strongly resistant clones, FIG. 6B
# Description: (§3) Cells were re-seeded into 150 cm^2 dishes supplemented with the appropriate treatments once each week. Media and compound was replaced for dish 4 once every week. Once resistant clones emerged, media was aspirated from dish 4. […] Cells from control dishes 1-3 were maintained until resistant clones were cryopreserved to maintain a constant culture time for control and experimental lines.
# (§4) 1000 cells (spontaneous resistant or engineered lines) were seeded in media supplemented with 10% FCS. For spontaneous resistant clones, increasing concentrations of compounds were added on the day of seeding whereas for engineered lines, compounds were added after 2 d of doxycycline treatment. In all cases growth assays were performed using CellTiter-Glo Luminescent Cell Viability Assay Reagent (Promega, cat# G7573) 7 d following compound treatment.
# [10] = test system: LNCaP lines engineered to express AR-F877L/T878A; test: Long-term colony formation assay, LNCaP expressing AR-F877L/T878A; assay type: cell-based; conditions: for growth sensitivity compared with bicalutamide: AR-F877L/T878A LNCaP lines, FIG. 6C colony formation
# Description: (§5) Codon-optimized cDNAs encoding WT or mutant ARs were synthesized (DNA2.0) and subcloned into the pLKO-TREX-HA-Neo (Invitrogen). […] Virus was harvested 2-3 d after transfection, filtered, and used to infect LNCaP, MyC-CaP and VCaP cell cultures in the presence of 8 μg ml-1 polybrene. Infected cells were maintained in neomycin for 3 weeks. In all cases, at least 1000 independent clones were pooled to generate stable cell lines to avoid clonal variations. Stable cell lines infected with control vectors were generated in parallel for use as experimental controls.
# (§6) 5000-7500 cells (spontaneous resistant or engineered lines) were seeded in 6-well plates in media supplemented with 10% FCS. […] Viable colonies were stained after 3-4 week cultures. Following media aspiration, 0.5% crystal violet was added to the wells and left overnight. The next morning, crystal violet solution was removed and wells were carefully washed with ddH2O to remove residual staining solution. The plates were air-dried overnight prior to imaging.
# [11] = test system: W742C/T878A mutant AR (KLK3 expression); assay type: cell-based
# Description: as §5
# [12] = test system: LNCaP lines engineered to express W742C/T878A AR
# Description: as §5, §6
# [13] = test system: LNCaP cells, controls (C1-C3); test: cells; conditions: Homo sapiens, read-out: aggregate IC50, growth inhibition
# Description: as §3, §4
# [14] = test system: W742L and W742C mutant ARs; test: AR luciferase reporter transactivation assay, W742 mutants; assay type: cell-based, human; conditions: 10 μM, FIG. 12
# Description: Reporter assays were performed as follows: 3×10^5 HEK293T cells were seeded in 6-well plates in DMEM supplemented with 10% FCS and 1×NEAA 24 h prior to transfection. Alternatively, 1×10^6 VCaP cells or 3×10^5 PC3 cells were seeded in 6-well plates in appropriate media supplemented with 10% CSS 24 h prior to transfection. […] Cells were collected ˜16 h following treatment and assayed for luciferase activity using the Glomax 96 microplate luminometer (Promega). Firefly activity was normalized to Renilla using the Dual Luciferase Assay reagent (Promega, E1910). All experiments were performed at least three times.
# [15] = test system: weakly resistant LNCaP clones #9, 10 and 14; test: Short-term CellTiter-Glo growth assay, weakly resistant LNCaP clones; assay type: cell-based; conditions: Homo sapiens, read-out: aggregate IC50, growth inhibition
# Description: as §3, §4
# [16] = test system: T878A-bearing mutant alleles of AR (KLK3 expression); test: qPCR of KLK3 in LNCaP engineered to express T878A-bearing mutant ARs; assay type: cell-based; conditions: 10 μM; 10% FCS; FIG. 15
# Description: […]. […] Infected cells were maintained in neomycin for 3 weeks.
# as §1, with “The following gene-specific primers (Invitrogen) were used: AR (Hs00171172_m1), KLK3 (Hs02576345_m1), NKX3-1 (Hs00171834_m1), TMPRSS2 (Hs01120965_m1), SLC45A3 (Hs00263832_m1), TBP (Hs00427620_m1), DHFR (Hs00758822_s1) and TK1 (Hs01062125_m1).” left out
structure (smiles),measurement,setting,value
"CNC(=O)c1ccc(N2C(=S)N(c3ccc(C#N)c(C(F)(F)F)c3)C(=O)C2(C)C)cc1F [MDV3100, 4-{3-[4-cyano-3-(trifluoromethyl)phenyl]-5,5-dimethyl-4-oxo-2-sulfanylideneimidazolidin-1-yl}-2-fluoro-N-methylbenzamide]",expression of E2F1 target genes DHFR and TK1,[1],suppressed expression
same,"effect on expression of AR target genes KLK3, NKX3-1 and SLC45A3","[2]; 10 μM, 10% FCS, FIG. 2c",blunted effects
same,KLK3 expression,"[2]; media stripped of androgens (10% CSS), alone or with agonist",significantly enhanced KLK3 expression
same,"incidence of most common adverse drug reactions (asthenia/fatigue, back pain, diarrhea, arthralgia, hot flush etc.)",[3],≥ 5%
same,AR pathway activity upon treatment,[4],insignificant change
same,body weight during treatment period,"[5]; control 1 xenograft mice, 30 mg/kg daily",No significant body weight loss
same,tumor growth under treatment,"[5]; control C1 tumors, 30 mg/kg daily",immediate stasis
same,"tumor take rates, treated vs. vehicle","[5]; control cells C1, 9 of 15 vs. 10 of 15",indistinguishable
same,nuclear AR localization,[6],not significantly altered
same,AR pathway activity upon treatment,[7],reduced AR pathway activity
same,CYP2C19 induction,CYP2C19,moderate
same,CYP3A4 induction,CYP3A4,strong
same,CYP2C9 induction,CYP2C9,moderate
same,nuclear AR localization,[8],significantly impaired
same,effect of short-term culture on cell population,LNCaP cells,population-wide stasis
"CN(C)C(=O)c1cc2cnc(Nc3ccc(N4CCNCC4)cn3)nc2n1C1CCCC1 [LEE011, 7-Cyclopentyl-2-(5-piperazin-1-yl-pyridin-2-ylamino)-7H-pyrrolo[2,3-d]pyrimidine-6-carboxylic acid dimethylamide]",growth sensitivity compared with bicalutamide,[9],as sensitive
same,growth sensitivity compared with bicalutamide,[10],as sensitive
"CC(O)(CS(=O)(=O)c1ccc(F)cc1)C(=O)Nc1ccc(C#N)c(C(F)(F)F)c1 (stereo not drawn) [bicalutamide, N-[4-cyano-3-(trifluoromethyl)phenyl]-3-[(4-fluorophenyl)sulfonyl]-2-hydroxy-2-methylpropanamide]",agonist/antagonist behaviour on KLK3 expression,[11],antagonist-to-agonist switch
same,IC50,"[9]; Homo sapiens, LNCaP, read-out: aggregate IC50, growth inhibition",5 µM
same,growth under treatment on expression of W742C/T878A allele,[12],significantly rescued growth
same,IC50,[13],1 µM
same,agonist/antagonist behaviour in AR reporter assay,[14],antagonist-to-agonist switch
same,IC50,[15],> 10 µM
same,growth under treatment on expression of F877L/T878A allele,[10],remained sensitive
CC(C)(O)C(=O)Nc1ccc([N+](=O)[O-])c(C(F)(F)F)c1 [hydroxyflutamide],agonist/antagonist behaviour on KLK3 expression,[16],antagonist-to-agonist switch
CC(=O)c1c(C)c2cnc(Nc3ccc(N4CCNCC4)cn3)nc2n(C2CCCC2)c1=O [PD0332991],growth sensitivity compared with bicalutamide,[9],as sensitive
same,growth sensitivity compared with bicalutamide,[10],as sensitive

# From patent publication US10011874B2, “Androgen receptor mutation” (NOVARTIS AG, priority 2013, dated 2018)
